# Measured values reported in patent US20210393645A1, “TREATMENT FOR PROGRESSIVE MULTIPLE SCLEROSIS” (UTI LIMITED PARTNERSHIP, priority 2016, published 2021).
# Structures can show the parent of a compound that is named as a salt.
# What was measured:
# [1] = system: Biozzi ABH mice; assay: Chronic EAE in Biozzi ABH mice (spinal cord homogenate); type: in vivo, mouse; conditions: treatment from onset of clinical signs
# [2] = system: Ifng, Tnfa, Il-17 and Ccl2 transcripts; assay: RT-PCR of inflammatory transcripts in lumbar spinal cord of EAE mice; type: in vivo, mouse; conditions: 25 mg/kg IP from day 0, sacrifice day 15
# Protocol: Lumbar spinal cords were harvested, snap frozen in liquid nitrogen and stored in -80° C. Samples were homogenized in 1 ml Trizol followed by the addition of 200 μI chloroform. […] RNA was extracted using the RNeasy Mini Kit according to the manufacturer's instruction (Qiagen). RNA concentrations were measured using a Nanodrop (Thermo Fisher Scientific). cDNA preparation was performed using the RT2 First Strand kit (Qiagen) with 1μg of RNA according to the manufacturer's instructions. Real time PCR was performed using the QuantStudio 6 Flex (Applied Biosystems by Life Technologies) with FAST SYBR Green and primers for Gapdh (Qiagen) as housekeeping gene, lfn-γ (Qiagen, QT01038821), Tnfa (Qiagen, QT00104006), II-17 (SABiosciences, PPM03023A-200) and CcI2 (Qiagen, QT00167832). Relative expression was calculated using the ΔΔCT method with Gapdh as housekeeping gene. Data were normalized to gene expression in naïve mice.
# [3] = system: C57BL/6 mice; assay: Histological analyses of the spinal cord of EAE mice (HE/LFB, Iba1, Bielschowsky); type: in vivo, mouse; conditions: 25 mg/kg IP from day 0
# Source text: Spinal cords and cerebella were removed. […] Cervical and lumbar cords were snap frozen.
# [4] = system: human neurons; assay: Iron (FeSO4) mediated neurotoxicity screening, MAP-2 positive neurons counted; type: cell-based
# Procedure, shortened: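 Fetal human neurons (15-20 wk), plated with cytosine arabinoside, were pre-incubated 1 h with compounds (10 mM DMSO stocks) before FeSO4 at 25-50 μM final. Cells fixed a day later; MAP-2 immunostaining plus Hoechst nuclei imaged automatically, sites per well averaged; quadruplicates.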
# [5] = system: B-cells; assay: TNF-α release of activated B-cells (ELISA); type: cell-based, human; conditions: BCR/anti-CD40L/IL-4 activation
# Protocol: Venous blood from healthy volunteers was obtained and peripheral blood mononuclear cells (PBMCs) were isolated by Ficoll gradient centrifugation (1800 RPM, 30 min). From PBMCs, B-cells were isolated by positive selection with CD19 directed microbeads (Stemcell Technologies). Purity was assessed by FACS after staining for CD19 (Stemcell Technologies). Cells were plated in a concentration of 2.5×10^5 cells/well in X-VIVO™ medium (Lonza) supplemented with 1% penicillin/streptomycin and 1% Glutamax and treated with drugs for 1 h. […] Medium as well as respective drugs were re-added followed by application of ^3H-thymidine in a concentration of 1 μCi per well to investigate proliferation.
# [6] = system: C57BL/6 mice; assay: MOG-EAE in C57BL/6 mice, clinical score; type: in vivo, mouse
# [7] = system: microglia; conditions: shown previously; cited from earlier work
# [8] = 25 mg/kg IP from onset of clinical signs (day 13)
smiles,measurement,setting,value
CN(C)CCCN1c2ccccc2CCc2ccc(Cl)cc21 [CLOMIPRAMINE HYDROCHLORIDE],clinical severity in chronic EAE,[1],reduced clinical severity
same,"elevation of transcripts encoding Ifng, Tnfa, Il-17 and Ccl2 in spinal cord",[2],abrogated
same,axonal damage (Bielschowsky stain),[3],significantly less axonal damage
same,histological score of the spinal cord (inflammation),[3],1.7
same,microglial activation (Iba1 staining),[3],prevented microglial activation
same,viability at 10 µM,"[4]; Homo sapiens, Neuron, drug 10 μM 1 h before FeSO4 25 or 50 μM, MAP-2 neurons after 24 h, read-out: Drug % control (mean): number of neurons normalized to untreated control",107%
same,concentration from which neuroprotection against iron toxicity is significant,[4]; concentration response,100 nM
same,Drug % control (mean): number of neurons normalized to untreated control,"[4]; drug 10 μM 1 h before FeSO4 25 or 50 μM, MAP-2 neurons after 24 h, HYDROCHLORIDE",107.30%
same,protection from FeSO4-mediated neurotoxicity (in words),"[4]; drug 10 μM, human neurons",strong protection
same,concentration from which production of TNF-α of activated B-cells is reduced,[5],2 µM
same,manifestations of clinical signs,[6]; 25 mg/kg IP from day 0 (day of MOG induction),completely suppressed
same,delay of onset of clinical signs,[6]; 25 mg/kg IP from day 5 after induction,2 days
same,"clinical disability of first relapse, days 14-20",[6]; [8],attenuated the marked rise in clinical disability
same,"second increase in clinical scores, days 42-50",[6]; [8],prevented
same,severity of the second relapse,[6]; 25 mg/kg IP from remission after first relapse (day 31),did not affect the severity of the second relapse
same,microglia inhibitory activity,[7],did not have microglia inhibitory activity
